Test results as given in patent US20040138245A1, “Product comprising mikanolide, dihydromikanolide or an analogue thereof combine with another anti-cancer agent for therapeutic use in cancer treatment” (priority 2001, published 2004).
Where “and” joins values, the source holds several entries; their conditions need not be identical. Identical values can stand only once.

Test system: HT-29 (human colon cancer cells)
Assay: Measurement of cellular proliferation in vitro (WST1 colorimetric test, 120 hours)
Format: cell-based
Conditions: HT29 cells
Description: The cell line HT-29 (human colon cancer cells) was acquired from the American Tissue Culture Collection (Rockville, Md., USA).
The HT-29 cells (4000 cells/wells) are cultured on 96-well plates.
On day 0, these cells are seeded in 90 μl of Dulbecco's modified Eagle medium (Gibco-Brl, Cergy-Pontoise, France) completed with 10% of foetal calf serum inactivated by heating (Gibco-Brl, Cergy-Pontoise, France), 50000 units/l of penicillin and 50 mg/l of streptomycin (Gibco-Brl, Cergy-Pontoise, France), and 2 mM of glutamine (Gibco-Brl, Cergy-Pontoise, France).
The cells were treated simultaneously with concentrations of the compounds to be tested singly or in combination for 120 hours.
At the end of the of this period, quantification of the cellular proliferation is evaluated by colorimetric test based on the cleavage of the tetrazolium salt WST1 by the mitochondrial […] in the living cells leading to the formation of formazan (Boehringer Mannheim, Meylan, France). These tests are carried out four times with 6 determinations for each single product and for each combination tested. This allows determination of the number of living cells at the end of each treatment.

## 4-(2-bromophenyl)-1-(2-(1-((4-cyano-3-methoxy)phenylmethyl)imidazo-5-yl)-1-oxoethyl)-1,2-dihydro-8-fluoroimidazol[1,2a][1,4]-benzodiazepine [Example B4]
Single compound at 5 μM
  % of living cells: 93% and 78%

## C[C@H]1C(=O)O[C@H]2C[C@]3(C)O[C@@H]3[C@@H]3O[C@@H]3C3=C[C@@H](OC3=O)[C@@H]21 [Example A1, dihydromikanolide]
Single compound at 5 μg/ml
  % of living cells: 61% and 64%

## [NH2][Pt]([NH2])([Cl])[Cl] [Example B1, cisplatin, reference compound]
Single compound at 6.25 μM
  % of living cells: 48%

## NC(CS)C(=O)N1CCn2cc(-c3ccccc3)nc2C1CC1CCCCC1 (stereo not drawn) [Example B2, 7-(2-amino-1-oxo-3-thiopropyl)-8-(cyclohexylmethyl)-2-phenyl-5,6,7,8-tetrahydroimidazo[1,2a]pyrazine]
Single compound at 25 μM
  % of living cells: 37% and 64%

## CC(C)[C@H](CO)Nc1nc(NCc2cccnc2)n2ncc(Br)c2n1 [Example B3, 8-bromo-2-(1R-isopropyl-2-hydroxyethylamino)-4-(3-pyridylmethylamino)pyrazolo[1,5-a]-1,3,5-triazine]
Single compound at 100 nM
  % of living cells: 104%

## hydrochloride of 8-(dimethylamino)-3,10a-dimethyl-2,6-dioxodecahydro-4,7-methenofuro[3,2-c]oxireno[f]oxacycloundecin-9-yl 2-naphthylcarbamate [Example A2]
Single compound at 5 μM
  % of living cells: 67% and 72% and 55%
